Laboratory results: US20250361253A1, “STING AGONIST COMPOUNDS” (Sutro Biopharma, Inc., priority 2022, published 2025)

How the values were obtained:
hSTING-R232 = biological target: T1, hSTING-R232 (Homo sapiens, UniProt Q86WV6, H232R); test: ISG reporter induction in 293-Dual hSTING-R232 reporter cells (QUANTI-Blue); type: cell-based; conditions: 293-Dual hSTING-R232 cells, overnight incubation
T1 construct: host or cells: 293-Dual (HEK293-derived) reporter cells
Protocol: (§1) Certain STING compounds of the disclosure were evaluated in an in vitro cell based assay.
(§2) 293-Dual hSTING-R232 and mSTING cells (Invivogen) were seeded at 25,000 cells/well (50 ul) and co-cultured with STING agonists (2× concentration, 50 ul) in clear, half-area, 96-well polystyrene plates. Cells and test samples were prepared in DMEM supplemented with 10% FBS, Glutamax, and PenStrep. After overnight incubation at 37 C in a CO2 incubator, 20 ul of supernatant was added to QUANTI-Blue detection reagent (Invivogen). After one hour incubation at 37 C, plates were read at 640/650 nm on EnVision plate reader (PerkinElmer). OD values were plotted by log(agonist) vs. response, variable slope, four parameter curve fit (Log transform) using GraphPad Prism software to determine EC50 values.

mSTING = biological target: T2, mSTING (Mus musculus, UniProt Q3TBT3); test: ISG reporter induction in 293-Dual mSTING reporter cells (QUANTI-Blue); type: cell-based; conditions: 293-Dual mSTING cells, overnight incubation
T2 construct: host or cells: 293-Dual (HEK293-derived) reporter cells
T2 sequence (Q3TBT3 1-378): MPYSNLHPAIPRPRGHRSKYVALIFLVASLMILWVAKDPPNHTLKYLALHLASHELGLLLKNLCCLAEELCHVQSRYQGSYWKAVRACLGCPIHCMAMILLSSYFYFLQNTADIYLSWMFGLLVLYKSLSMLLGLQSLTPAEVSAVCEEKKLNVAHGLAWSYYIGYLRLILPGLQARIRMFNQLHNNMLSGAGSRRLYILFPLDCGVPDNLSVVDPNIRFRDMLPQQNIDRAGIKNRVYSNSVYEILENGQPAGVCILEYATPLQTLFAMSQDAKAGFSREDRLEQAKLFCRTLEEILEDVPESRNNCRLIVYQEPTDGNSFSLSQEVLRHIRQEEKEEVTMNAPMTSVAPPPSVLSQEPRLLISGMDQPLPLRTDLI
Protocol: as §1, §2

hSTING WT [1] = biological target: T3, hSTING WT (Homo sapiens, UniProt Q86WV6); test: Thermal shift assay (DSF); type: binding; design: unit not given here; conditions: compound at 3.12 uM
T3 sequence (Q86WV6 155-341 H232R limits assumed): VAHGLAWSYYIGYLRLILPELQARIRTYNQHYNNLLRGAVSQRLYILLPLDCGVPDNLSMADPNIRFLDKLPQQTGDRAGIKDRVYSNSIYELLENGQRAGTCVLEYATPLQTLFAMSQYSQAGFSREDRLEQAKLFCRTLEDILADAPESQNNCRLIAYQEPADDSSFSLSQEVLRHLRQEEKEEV
From the text: Thermal shift assay experimental methods were followed based on the published methods described in Ramanjulu et al. Nature, 2018, 564, 439.

hSTING WT [2] = biological target: T3, hSTING WT; test: Surface plasmon resonance assay; type: binding; conditions: read-out: hSTING WT SPR (Kd)
Protocol: Surface plasmon resonance assay experimental methods were followed based on the published methods described in Pan et al., Science, 2020 369, eaba6098. (“A” means EC50≤20 nM).

T1 sequence (Q86WV6 whole entry H232R): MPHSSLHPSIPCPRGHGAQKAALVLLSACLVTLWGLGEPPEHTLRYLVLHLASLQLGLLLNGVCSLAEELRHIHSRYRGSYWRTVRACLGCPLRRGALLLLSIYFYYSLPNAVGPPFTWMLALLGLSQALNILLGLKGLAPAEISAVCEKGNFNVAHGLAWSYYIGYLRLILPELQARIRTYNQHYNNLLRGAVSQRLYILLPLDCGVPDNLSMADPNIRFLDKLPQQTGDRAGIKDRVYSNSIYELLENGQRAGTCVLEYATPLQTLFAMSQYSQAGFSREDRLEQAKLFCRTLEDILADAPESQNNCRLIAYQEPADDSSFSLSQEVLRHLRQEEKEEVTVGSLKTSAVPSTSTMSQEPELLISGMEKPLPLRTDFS

| EC50 (hSTING-R232) | EC50 (mSTING) | hSTING WT DSF (delta TmD @ 3.12 uM) (hSTING WT [1]) | Kd (hSTING WT [2]) | SMILES |
| --- | --- | --- | --- | --- |
| > 150 nM | 50 to 150 nM | 20 | ≤ 20 nM | COc1cc2sc(C(=O)CC(C)(C)C(=O)O)cc2c(F)c1OCCCOc1c(OC)cc2sc(C(=O)CS(=O)(=O)O)cc2c1F [Compound 1, 4-(4-Fluoro-5-(3-((4-fluoro-6-methoxy-2-(2-sulfoacetyl)benzo[b]thiophen-5-yl)oxy)propoxy)-6-methoxybenzo[b]thiophen-2-yl)-2,2-dimethyl-4-oxobutanoic acid] |
| 50 to 150 nM | 50 to 150 nM | −0.1 |  | COC(=O)C(C)(C)CC(=O)c1cc2c(F)c(OCCCOc3c(OC)cc4sc(C(=O)CP(=O)(O)O)cc4c3F)c(OC)cc2s1 [Compound 5, (2-(4-Fluoro-5-(3-((4-fluoro-6-methoxy-2-(4-methoxy-3,3-dimethyl-4-oxobutanoyl)benzo[b]thiophen-5-yl)oxy)propoxy)-6-methoxybenzo[b]thiophen-2-yl)-2-oxoethyl)phosphonic acid] |
| ≤ 50 nM | ≤ 50 nM | 20 | ≤ 20 nM | COc1cc2sc(C(=O)CC(C)(C)C(=O)O)cc2c(F)c1OCCCOc1c(OC)cc2sc(C(=O)CP(=O)(O)O)cc2c1F [Compound 6, 4-(4-Fluoro-5-(3-((4-fluoro-6-methoxy-2-(2-phosphonoacetyl)benzo[b]thiophen-5-yl)oxy)propoxy)-6-methoxybenzo[b]thiophen-2-yl)-2,2-dimethyl-4-oxobutanoic acid] |
| ≤ 50 nM | ≤ 50 nM | 20 | ≤ 20 nM | COc1cc2sc(C(=O)CCC(=O)O)cc2c(F)c1OCCCOc1c(OC)cc2sc(C(=O)CCP(=O)(O)O)cc2c1F [Compound 7, 4-(4-Fluoro-5-(3-((4-fluoro-6-methoxy-2-(3-phosphonopropanoyl)benzo[b]thiophen-5-yl)oxy)propoxy)-6-methoxybenzo[b]thiophen-2-yl)-4-oxobutanoic acid] |
